Results taken from US5348941A, “Stabilizers for fibroblast growth factors” (Merck & Co., Inc., priority 1992, dated 1994).

How the values were obtained:
[1] = tested on: BALB/c 3T3 A31 fibroblasts; experiment: Fibroblast mitogenic assay ([3H]-thymidine incorporation into DNA); format: cell-based; design: Bioactivity (mitogenic activity of aFGF in the presence of ligand): unit not given here; conditions: for mitogenic activity of aFGF: absence of heparin; for Bioactivity (mitogenic activity of aFGF in the presence of ligand): complete absence of heparin, < = response did not plateau, * = cell death observed
Experimental: Biological activity of the formulation of the instant invention is determined by a modification of the fibroblast mitogenic assay as described by Linemeyer et al. in European Patent Application, Publication No. 259,953. BALB/c 3T3 A31 fibroblasts (American Type Culture Collection) are plated at about 3×10^5 cells per 32 cm^2 wells in culture media containing about 10% heat-inactivated calf serum and incubated in about 7% CO2 (pH 7.35±0.05). The cells become fully quiescent by replacing the media with serum free media at about 6, about 24 hours and about 48 hours later. At about 53 hours after plating samples of the various formulations are added and about 0.12 μg of dexamethasone are added. At about 65 hours each well is supplemented with about 0.4 μCi of [methyl-^3 H]-thymidine (20 Ci/mmole, Dupont) and 0.6 μg of unlabeled thymidine (Sigma), and at 80 hours the cells are processed for determination of radiolabel incorporation into DNA. Each dose-response point is the average of at least quadruplicate determinations. Other cell types such vascular endothelial cells and corneal endothelial cells can be employed to determine in vitro mitogenicity. The procedures are described in detail by Thomas et al., Proc. Natl. Acad. Sci. USA 82:6409-6431 (1985).
^(d) Mitogenic activity of aFGF was measured in the presence of ligan
indicated in the complete absence of heparin.
*indicates cell death observed during assay.
Biological activity of the formulation of the instant invention was determined by a modification of the fibroblast mitogenic assay as described by Linemeyer et al. in European Patent Application, Publication No. 259,953. BALB/c 3T3 A31 fibroblasts (American Type Culture Collection) were plated at 3×10^5 cells per 32 cm^2 well in culture media containing about 10% heat-inactivated calf serum and incubated in 7% CO2 (pH 7.35±0.05). The cells become fully quiescent by replacing the media with serum free media at 6, 24 hours and 48 hours later. At 53 hours after plating samples of the various formulations were added and 0.12 μg of dexamethasone was added, at 65 hours each well was supplemented with 0.4 μCi of [methyl-^3 H]-thymidine (20 Ci/mmole, Dupont) and 0.6 μg of unlabeled thymidine (Sigma), and at 80 hours the cells were processed for determination of radiolabel incorporation into DNA. Each dose-response point is the average of at least quadruplicate determinations. Other cell types such vascular endothelial cells and corneal endothelial cells can be employed to determine in vitro mitogenidty. The procedures are described in detail by Thomas et al., Proc. Natl. Acad. Sci. USA 82:6409-6431 (1985).

acidic FGF (aFGF) = acidic FGF (aFGF) (Homo sapiens, UniProt P05230); experiment: biochemical; conditions: for stabilization of aFGF against heat-induced aggregation: 0.5X and 10X ligand, FIGS. 6-8; for Approx. Molar Ratio (ligand to aFGF at 50% inhibition of aggregation): Table 1
Description: Stabilization of aFGF can be determined by several independent methods including turbidity measurements, spectroscopic techniques, maintenance of protein mass, mitogenic activity and copper catalyzed oxidation. Since acidic fibroblast growth factor is unstable at physiological temperatures (undergoing large structural changes, including aggregation, which results in a loss of mitogenic and wound healing activity), human aFGF stability can be monitored by evaluating the turbidity of the pharmaceutical composition by following the kinetics of temperature induced aggregation of unfolded protein.
The kinetics of protein aggregation (stabilization) are monitored by the degree of light scattering at about OD350 nm using a Perkin Elmer Lambda 6 UV-visible spectrophotometer equipped with a six-cuvette holder. Temperature is controlled by circulating a water/ethylene glycol solution through the cell holder. About 0.9 ml of a PBS solution (6 mM sodium phosphate, 120 mM NaCl, pH 7.2) was placed into a cuvette and incubated at the appropriate temperature within the spectrophotometer. Once equilibrated, 100 μl of a 1 mg/ml aFGF solution containing the appropriate amount of ligand (stabilizer) is added to the cuvette and mixed manually by inversion. The change in optical density at 350 nm over time is continuously monitored. A dead time of 30s was present due to the mixing of the six samples in each experiment.
To examine the interactions between aFGF and heparin, a spectrophotometric turbidity assay was developed. This technique monitors the structural stability of aFGF by following the kinetics of temperature induced aggregation of unfolded protein by measurement of the degree of light scattering (turbidity) at 350 nm. The kinetics of protein aggregation were monitored by the degree of light scattering at 350 nm using a Perkin Elmer Lambda 6 UV-visible spectrophotometer equipped with a six-cuvette holder. Temperature was controlled by circulating a water/ethylene glycol solution through the cell holder. A PBS solution, 0.9 ml, (6 mM phosphate, 120 mM NaCl pH 7.2) was placed into a cuvette and incubated at the appropriate temperature within the spectrophotometer. Once equilibrated, 100 μl of a 1 mg/ml aFGF solution containing the appropriate amount of ligand was added to the cuvette and mixed manually by inversion. The change in optical density at 350 nm over time was continuously monitored. A dead time of 30s was present due to the mixing of the six samples in each experiment.
Samples contained 100 μg/ml aFGF in a PBS buffer at pH 7.2 with the indicated ratio of heparin to aFGF (wt:wt).
Samples contained 100 μg/ml protein in a PBS buffer, pH 7.2 with (a) no heparin, (b) 1.5 μg/ml, (c) 3 μg/ml, (d) 5 μg/ml, (e) 10 μg/ml and (f) 50 μg/ml heparin. Only representative data points are shown for clarity. […] Using the initial linear portion of the slope of turbidity vs. time plots as a measure of the rate of aggregation, the effect of polyanion concentration can be quantitatively characterized. The Y-axis represents the maximum rate of turbidity formation (ΔOD350 nm/min) normalized to sample (a) containing no heparin. The curve is drawn through data points for clarity only. The IC50 is the concentration of ligand at which the rate of aggregation is 50% of the control sample.

[2] = 40° C., 100 μg/ml aFGF, PBS pH 7.2

acidic FGF (aFGF), sequence (P05230 16-155 limits assumed): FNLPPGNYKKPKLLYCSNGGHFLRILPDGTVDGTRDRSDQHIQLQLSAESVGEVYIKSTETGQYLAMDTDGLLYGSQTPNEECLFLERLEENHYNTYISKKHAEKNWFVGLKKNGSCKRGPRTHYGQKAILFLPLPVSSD

O=P(O)(O)O[C@H]1[C@H](OP(=O)(O)O)[C@@H](OP(=O)(O)O)[C@H](OP(=O)(O)O)[C@@H](OP(=O)(O)O)[C@H]1OP(=O)(O)O [Inositol hexaphosphate, inositol hexaphosphate]
mitogenic activity of aFGF [1]: did not show any appreciable mitogenic activity
Bioactivity (mitogenic activity of aFGF in the presence of ligand) [1]: < 0.6

O=S(=O)(O)OC1C(OS(=O)(=O)O)C(OS(=O)(=O)O)C(OS(=O)(=O)O)C(OS(=O)(=O)O)C1OS(=O)(=O)O (stereo not shown) [Inositol hexasulfate, inositol hexasulfate]
number of ligand molecules per aFGF (molar ratio) required for stabilization (acidic FGF (aFGF); 40° C.): only one or a few ligands per aFGF molecule
IC50 (acidic FGF (aFGF); 40° C., 100 μg/ml aFGF, PBS pH 7.2, read-out: IC50: concentration of ligand at which the rate of heat-induced aggregation of aFGF is 50% of the sample without ligand (converted)): 4.54 µM
stabilization of aFGF against heat-induced aggregation (acidic FGF (aFGF); 40° C.): stabilize aFGF against heat-induced aggregation
Approx. Molar Ratio (ligand to aFGF at 50% inhibition of aggregation) (acidic FGF (aFGF); 40° C.): 0.6
Bioactivity (mitogenic activity of aFGF in the presence of ligand) [1]: 2.3

O=P(O)(O)OP(=O)(O)OP(=O)(O)OP(=O)(O)O [Tetrapolyphosphate]
number of ligand molecules per aFGF (molar ratio) required for stabilization (acidic FGF (aFGF); 40° C.): only one or a few ligands per aFGF molecule
IC50: concentration of ligand at which the rate of heat-induced aggregation of aFGF is 50% of the sample without ligand (acidic FGF (aFGF); [2]): 3 µg/mL
Approx. Molar Ratio (ligand to aFGF at 50% inhibition of aggregation) (acidic FGF (aFGF); 40° C.): 1.2
mitogenic activity of aFGF [1]: did not show any appreciable mitogenic activity
Bioactivity (mitogenic activity of aFGF in the presence of ligand) [1]: < 0.25

dextran sulfate
number of ligand molecules per aFGF (molar ratio) required for stabilization (acidic FGF (aFGF); 40° C.): substantially below one
IC50: concentration of ligand at which the rate of heat-induced aggregation of aFGF is 50% of the sample without ligand (acidic FGF (aFGF); [2]): 3 µg/mL
stabilization of aFGF against heat-induced aggregation (acidic FGF (aFGF); 40° C.): dramatically stabilize aFGF from heat-induced aggregation
Approx. Molar Ratio (ligand to aFGF at 50% inhibition of aggregation) (acidic FGF (aFGF); 40° C.): 0.06
Bioactivity (mitogenic activity of aFGF in the presence of ligand) [1]: 5.0

heparin [reference compound]
number of ligand molecules per aFGF (molar ratio) required for stabilization (acidic FGF (aFGF); 40° C.): substantially below one
heparin concentration down to which no detectable aggregation of aFGF was observed (acidic FGF (aFGF); 40° C., 100 μg/ml aFGF (1:10 weight ratio of heparin to aFGF)): approximately 10 μg/ml
IC50: concentration of ligand at which the rate of heat-induced aggregation of aFGF is 50% of the sample without ligand (acidic FGF (aFGF); [2]): 2 µg/mL
Approx. Molar Ratio (ligand to aFGF at 50% inhibition of aggregation) (acidic FGF (aFGF); 40° C.): 0.03
aggregation of aFGF (acidic FGF (aFGF); 55° C., 25 minutes, 3-fold excess heparin by weight): no aggregation observed after 25 minutes at 55 °C
Bioactivity (mitogenic activity of aFGF in the presence of ligand) [1]: 4.2

low molecular weight heparin [Low MW heparin, reference compound]
IC50: concentration of ligand at which the rate of heat-induced aggregation of aFGF is 50% of the sample without ligand (acidic FGF (aFGF); [2]): 3 µg/mL
stabilization of aFGF against heat-induced aggregation (acidic FGF (aFGF); 40° C.): dramatically stabilize aFGF from heat-induced aggregation
Approx. Molar Ratio (ligand to aFGF at 50% inhibition of aggregation) (acidic FGF (aFGF); 40° C.): 0.10
Bioactivity (mitogenic activity of aFGF in the presence of ligand) [1]: 4.0

sulfated β-cyclodextrin
Bioactivity (mitogenic activity of aFGF in the presence of ligand) [1]: 3.7
